According to ChEMBL document CHEMBL5614450, “SAR Study of 4,8-Disubstituted Pyrimido[5,4-d]pyrimidines Exhibiting Antitrypanosomal and Antileishmanial Activity” (ACS Med Chem Lett, 2024):

Assays:
hERG (KCNH2) = hERG (KCNH2) (Homo sapiens, UniProt Q12809); assay: Displacement of tracer from hERG extracted from membrane at 10 uM incubated for 2 hrs by fluorescence polarization assay; format: toxicity, cell membranes; settings: hERG membrane preparation, probe tracer (not named)
Trypanosoma brucei = assay: Anti-trypanosomal activity against trypomastigote blood stage of Trypanosoma brucei Lister 427 assessed as inhibition of parasite growth incubated for 72 hrs by resazurin-dye based assay; format: functional, organism-based; settings: Lister 427, 72 h
[1] = Selectivity index, ratio of CC50 for cytotoxicity against human THP-1 cells to IC50 for anti-trypanosomal activity against trypomastigote blood stage of Trypanosoma brucei Lister 427; format: toxicity, cell-based; settings: read-out: Ratio CC50/IC50
Leishmania infantum [2] = assay: Anti-leishmanial activity against promastigote stage of Leishmania infantum MHOM/MA/67/ITMAP-263 assessed as inhibition of parasite growth incubated for 72 hrs by resazurin-dye based assay; format: functional, organism-based; settings: MHOM/MA/67/ITMAP-263, 72 h
Leishmania infantum [3] = assay: Anti-leishmanial activity against promastigote stage of Leishmania infantum MHOM/MA/67/ITMAP-263 assessed as inhibition of parasite growth at 10 uM incubated for 72 hrs by resazurin-dye based assay; format: functional
Leishmania infantum [4] = assay: Anti-leishmanial activity against luciferase expressing intracellular amastigote stage of Leishmania infantum MHOM/MA/67/ITMAP-263 infected in human THP-1 cells assessed as inhibition of parasite growth at 10 uM incubated for 72 hrs by Steady-Glo luciferase assay; format: functional; settings: MHOM/MA/67/ITMAP-263, THP-1
[5] = Selectivity index, ratio of CC50 for cytotoxicity against human THP-1 cells to IC50 for anti-leishmanial activity against luciferase expressing intracellular amastigote stage of Leishmania infantum MHOM/MA/67/ITMAP-263 infected in human THP-1 cells; format: toxicity, cell-based; settings: read-out: Ratio CC50/IC50
[6] = Cytotoxicity against human THP-1 cells assessed as reduction in cell viability incubated for 72 hrs by MTT assay; format: toxicity, cell-based
[7] = Selectivity index, ratio of CC50 for cytotoxicity against human THP-1 cells to IC50 for anti-leishmanial activity against promastigote stage of Leishmania infantum MHOM/MA/67/ITMAP-263; format: toxicity, cell-based; settings: read-out: Ratio CC50/IC50
[8] = Cytotoxicity against human HEK293 cells assessed as reduction in cell viability at 10 uM incubated for 24 hrs by Cell-Titer Glo luminescence assay; format: toxicity, cell-based; settings: read-out: INH
Leishmania infantum [9] = assay: Anti-leishmanial activity against luciferase expressing intracellular amastigote stage of Leishmania infantum MHOM/MA/67/ITMAP-263 infected in human THP-1 cells assessed as inhibition of parasite growth incubated for 72 hrs by Steady-Glo luciferase assay; format: functional, organism-based; settings: MHOM/MA/67/ITMAP-263, THP-1, 72 h
[10] = Cytotoxicity against human A549 cells assessed as reduction in cell viability at 10 uM incubated for 24 hrs by Cell-Titer Glo luminescence assay; format: toxicity, cell-based; settings: read-out: INH
CYP3A4 = CYP3A4 (Homo sapiens, UniProt P08684); assay: Inhibition of human CYP3A4 expressed in insect cell microsomes at 10 uM preincubated for 20 mins followed by NADP+ and substrate addition and measured after 10 mins by fluorescence based analysis; format: ADME, Microsome; settings: recombinant human CYP3A4 expressed in insect cell microsomes, time 30 min
Sequence of CYP3A4 (P08684 whole entry): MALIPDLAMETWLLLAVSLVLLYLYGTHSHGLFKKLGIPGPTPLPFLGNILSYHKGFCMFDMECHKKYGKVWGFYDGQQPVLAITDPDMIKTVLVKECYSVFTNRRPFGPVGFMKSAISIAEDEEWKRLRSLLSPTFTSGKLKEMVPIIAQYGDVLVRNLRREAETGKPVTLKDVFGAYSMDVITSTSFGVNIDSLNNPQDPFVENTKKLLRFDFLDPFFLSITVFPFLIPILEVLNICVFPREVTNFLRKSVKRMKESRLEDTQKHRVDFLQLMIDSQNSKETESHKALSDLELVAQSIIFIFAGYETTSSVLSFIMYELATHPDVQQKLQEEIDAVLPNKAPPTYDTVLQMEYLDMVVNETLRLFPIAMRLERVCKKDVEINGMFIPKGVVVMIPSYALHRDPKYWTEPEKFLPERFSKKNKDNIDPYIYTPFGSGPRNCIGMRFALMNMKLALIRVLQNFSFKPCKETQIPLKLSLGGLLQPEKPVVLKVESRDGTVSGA

Sequence of hERG (KCNH2) (Q12809 whole entry): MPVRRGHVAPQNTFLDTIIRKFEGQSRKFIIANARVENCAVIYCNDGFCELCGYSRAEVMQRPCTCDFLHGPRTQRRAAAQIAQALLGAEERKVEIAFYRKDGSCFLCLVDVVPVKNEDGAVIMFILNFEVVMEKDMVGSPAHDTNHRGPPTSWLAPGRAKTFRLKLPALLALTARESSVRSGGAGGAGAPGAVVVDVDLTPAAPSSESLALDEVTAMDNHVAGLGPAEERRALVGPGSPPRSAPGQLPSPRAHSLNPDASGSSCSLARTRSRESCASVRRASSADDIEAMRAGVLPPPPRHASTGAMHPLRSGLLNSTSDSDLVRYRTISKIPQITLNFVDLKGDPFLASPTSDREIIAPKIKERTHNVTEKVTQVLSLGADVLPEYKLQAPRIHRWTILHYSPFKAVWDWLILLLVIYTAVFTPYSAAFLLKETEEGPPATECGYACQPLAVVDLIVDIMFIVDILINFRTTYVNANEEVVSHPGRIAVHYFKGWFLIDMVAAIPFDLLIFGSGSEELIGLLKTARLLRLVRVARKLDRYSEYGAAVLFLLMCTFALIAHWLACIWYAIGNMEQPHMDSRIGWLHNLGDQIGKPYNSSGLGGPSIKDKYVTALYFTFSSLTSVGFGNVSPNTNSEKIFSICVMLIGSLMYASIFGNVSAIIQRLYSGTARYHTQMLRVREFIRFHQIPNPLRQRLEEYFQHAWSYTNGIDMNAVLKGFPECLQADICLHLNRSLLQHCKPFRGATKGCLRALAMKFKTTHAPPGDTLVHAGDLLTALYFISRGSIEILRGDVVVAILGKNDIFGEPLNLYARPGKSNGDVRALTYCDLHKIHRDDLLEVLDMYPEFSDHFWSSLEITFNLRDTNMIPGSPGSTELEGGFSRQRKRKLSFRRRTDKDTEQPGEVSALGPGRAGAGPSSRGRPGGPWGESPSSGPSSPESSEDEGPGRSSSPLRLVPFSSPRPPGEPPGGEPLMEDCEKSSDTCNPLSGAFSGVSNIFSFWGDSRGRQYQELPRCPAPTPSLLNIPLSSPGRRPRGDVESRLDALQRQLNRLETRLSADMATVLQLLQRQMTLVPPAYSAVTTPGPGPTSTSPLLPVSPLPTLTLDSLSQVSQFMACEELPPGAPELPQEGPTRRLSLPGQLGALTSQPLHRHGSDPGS

| IC50 (Trypanosoma brucei) [nM] | inhibition at 10 min, 10 µM (CYP3A4) [%] | Structure (SMILES) | inhibition at 2 h, 10 µM (hERG (KCNH2)) [%] | selectivity ratio [1] | IC50 (Leishmania infantum [2]) [nM] | inhibition at 10 µM (Leishmania infantum [3]) [%] | inhibition at 10 µM (Leishmania infantum [4]) [%] | selectivity ratio [5] | CC50 at 72 h [6] [nM] | selectivity ratio [7] | cytotoxicity at 24 h, 10 µM [8] [%] | IC50 (Leishmania infantum [9]) [nM] | cytotoxicity at 24 h, 10 µM [10] [%] |
| --- | --- | --- | --- | --- | --- | --- | --- | --- | --- | --- | --- | --- | --- |
| 550 | 2 | COc1ccc(Nc2ncnc3c(N/N=C/c4ccc(O)c(O)c4)ncnc23)cc1 | 36 | > 182 | 990 | 98 | 87 | > 32 | > 100000 | > 101 | 18 | 3130 | 39 |
| 1280 | 2 | COc1cccc(Nc2ncnc3c(N/N=C/c4ccc(O)c(O)c4)ncnc23)c1 | 18 | > 39 | 1670 | 94 | 62 | 6 | > 50000 | 30 | 7 | 8510 | 22 |
| 2440 | 0 | COc1ccc(Nc2ncnc3c(N/N=C/c4ccc(OC)c(OC)c4)ncnc23)cc1 | 0 | > 41 | 1930 | 98 | 85 | > 33 | > 100000 | > 52 | 12 | 3000 | 23 |
